Measurements reported in publication PMC8558867, “Development of BromoTag: A “Bump-and-Hole”–PROTAC System to Induce Potent, Rapid, and Selective Degradation of Tagged Target Proteins” (Journal of Medicinal Chemistry, 2021).

Assays:
VHL (VCB protein) = target: T1, VHL (VCB protein) (Homo sapiens, UniProt P40337); test: FP competitive binding assay, binary binding; conditions: compound alone; mean ±S.E.M., N = 4; read-out: binary affinity to VHL Kd
T1 construct: N-terminally His6-tagged VHL (54–213); His6 (N, cleaved yes); made in house; host or cells: E. coli

BromoTag-Brd2 [1] = test: Dose–response degradation assay (western blot, 6 h) in heterozygous BromoTag-Brd2 HEK293 cells; type: cell-based, human; conditions: 6 h; for pDC50 (Ab: Brd^4BD2 L387A) / pDC50 (Ab: BromoTag-Brd2): eight-point 10 μM to 1 nM, mean ±S.E. of two repeats; for DC50: read-out: DC50 of BromoTag-Brd2 degradation (DC50, 6h), single stereoisomers
BromoTag-Brd2 [2] = test: Time course degradation assay (western blot, 0–36 h) in heterozygous BromoTag-Brd2 HEK293 cells; type: cell-based, human; conditions: 500 nM 47, 1 μM 48, over 36 h
Experimental: Heterozygous BromoTag-Brd2 HEK293 cells were plated at a density of 5 × 10^5 cells per well of a six-well healthy plate a day prior to initiating the time course assay. […] The time point range was between 0 and 36 h. Treatment was applied in a staggered fashion to enable all time points to be harvested at the same time.
All cells were harvested on ice with RIPA lysis and extraction buffer (Thermo Fisher Scientific, 89901) supplemented with protease inhibitor cocktail (Merck, 11697498001) and Benzonase Nuclease (Sigma, E1014) before being stored at −20 °C prior to use. Total protein quantity was determined using the BCA protein assay (#23225, Pierce, Rockford, Illinois). The protein concentration was determined using the BCA assay (Thermo Fisher Scientific, 23225). The samples were then prepared and loaded onto NuPAGE 4–12% bis–tris Midi gels (Thermo Fisher Scientific, WG1403A), followed by the transfer of proteins onto nitrocellulose membranes (EMD Millipore). The membranes were blocked for 1 h prior to incubation with the primary antibodies using 5% Milk TBST. […] All western blots were analyzed for band intensities using Image Lab from Bio-Rad (LI-COR, Biosciences). The data extracted from these blots were then plotted and analyzed using Prism (v. 8.2.0, GraphPad).

VHL with Brd4^BD2 L387A = target: T2, VHL with Brd4^BD2 L387A (Homo sapiens, UniProt O60885+P40337, L387A); test: FP competitive binding assay, ternary complex binding (compound preincubated with Brd4^BD2 L387A); conditions: for α (FP binding): cooperativity, Kd binary/Kd ternary, supplementary CSV; for Kd: preincubated with Brd4^BD2 L387A, mean ±S.E.M., N = 4, read-out: ternary binding affinity Kd; for cooperativity (α): α = Kd binary/Kd ternary
T2 construct: N-terminally His6-tagged VHL (54–213); His6 (N, cleaved yes); made in house; host or cells: E. coli

22RV1 cells = test: CellTiter-Glo 2.0 cell viability assay, 22RV1; type: cell-based, human; conditions: Homo sapiens; 22RV1, 48 Hours, mean ±S.E.M, N = 2; read-out: pEC50 (cell viability) (converted)

Compound | Kd (VHL (VCB protein)) | pDC50 (Ab: Brd^4BD2 L387A) (BromoTag-Brd2 [1]) | pDC50 (Ab: BromoTag-Brd2) (BromoTag-Brd2 [1]) | DC50 (BromoTag-Brd2 [1]) | extent of BromoTag-Brd2 degradation in the time course experiment (BromoTag-Brd2 [2]) | α (FP binding) (VHL with Brd4^BD2 L387A) | Kd (VHL with Brd4^BD2 L387A) | cooperativity (α) (VHL with Brd4^BD2 L387A) | EC50 (22RV1 cells)
CC[C@@H](C(=O)OCCOCCCOCC(=O)N[C@H](C(=O)N1C[C@H](O)C[C@H]1C(=O)N[C@@H](C)c1ccc(-c2scnc2C)cc1)C(C)(C)C)[C@@H]1N=C(c2ccc(Cl)cc2)c2c(sc(C)c2C)-n2c(C)nnc21 [AGB2 (47), 2-(3-(2-(((S)-1-((2S,4R)-4-Hydroxy-2-(((S)-1-(4-(4-methylthiazol-5-yl)phenyl)ethyl)carbamoyl)pyrrolidin-1-yl)-3,3-dimethyl-1-oxobutan-2-yl)amino)-2-oxoethoxy)propoxy)ethyl (R)-2-((S)-4-(4-chlorophenyl)-2,3,9-trimethyl-6H-thieno[3,2-f][1,2,4]triazolo[4,3-a][1,4]diazepin-6-yl)butanoate] | 45 nM | 9.0 ± 0.4 | 8.6 ± 0.2 | 1 to 3 nM | near-complete target degradation | 3.6 | 12 nM | 3.6 | –
CC[C@@H](C(=O)NCCOCCOCCOCC(=O)N[C@H](C(=O)N1C[C@H](O)C[C@H]1C(=O)NCc1ccc(-c2scnc2C)cc1)C(C)(C)C)[C@@H]1N=C(c2ccc(Cl)cc2)c2c(sc(C)c2C)-n2c(C)nnc21 [AGB3 (48), (2S,4R)-1-((2S,17R)-2-(tert-Butyl)-17-((S)-4-(4-chlorophenyl)-2,3,9-trimethyl-6H-thieno[3,2-f][1,2,4]triazolo[4,3-a][1,4]diazepin-6-yl)-4,16-dioxo-6,9,12-trioxa-3,15-diazanonadecanoyl)-4-hydroxy-N-(4-(4-methylthiazol-5-yl)benzyl)pyrrolidine-2-carboxamide] | 102 nM | 6.5 ± 0.3 | 6.7 ± 0.1 | 210 to 290 nM | – | 10.9 | 9 nM | 10.9 | –
Cc1ncsc1-c1ccc(CNC(=O)[C@@H]2C[C@H](O)CN2C(=O)[C@@H](NC(=O)COCCOCCOCCNC(=O)C[C@@H]2N=C(c3ccc(Cl)cc3)c3c(sc(C)c3C)-n3c(C)nnc32)C(C)(C)C)cc1 [cis-MZ1] | – | – | – | – | – | – | – | – | > 10 µM
